Assay results taken from patent US20100143385A1, “METHODS FOR REDUCING PHOSPHATE ABSORPTION” (priority 2006, published 2010).

System: chicks fed a phytic phosphorous basal diet
Assay: chicken model: chicks fed Pi deficient phytic phosphorous diet with added 1α-hydroxyvitamin D3
Type: in vivo, Single Comb White Leghorn chicks
Text: Animal model: The dietary sources of inorganic phosphate (Pi) are largely mineral phosphates or phosphate from animal tissues and products (milk and eggs). These Pi sources are readily available for absorption by monogastric animals. In diseases where the uptake of phosphorous requires intervention, patients are usually required to avoid these foods and take Pi binders. While this is a useful strategy in reducing the absorption of Pi, patients taking alternative food (e.g., plant based foods) during the treatment of diseases such as end stage renal failure is exposed to another source of phosphate that may serve as a pool of Pi for absorption. Phytic phosphorous (PP) represents 70-80% of all phosphorous in plant based foods. PP is normally unavailable for absorption in monogastric animals when consumed and is excreted with the fecal waste.
Providing 1α-hydroxyvitamin D3 to the chickens fed the Pi deficient diet raised the serum phosphate level. Therefore, this model can be used to test whether anti-phytic acid antibodies would be effective in reducing increased serum phosphate levels from a phytic origin caused by 1α-hydroxyvitamin D3.
Animal experiment: The model used in this study was described by Biehl and Baker, J. Nutr. 1997, 127:2054-2059 with the exception of antibodies to phytic acid. The negative control used in this study was a Pi deficient diet (Pi=inorganic phosphate which are largely mineral phosphates or phosphate from animal tissues and products such as milk and eggs), where the dietary phosphorous used was phytic phosphate. […] The positive control was the same diet as the negative control, but supplemented with 1α-hydroxyvitamin D3 (20 μg/kg diet, Sigma). […] The remaining dietary treatment was the positive control plus the antibody to phytic acid (1 g of dried egg yolk powder produced as described above). The negative and positive controls were fed 1 g/kg diet of dried yolk powder from hens injected with the adjuvant. These egg yolk powders lacked specific antibodies.
A total of 3 treatments were used (negative control, positive control, positive control plus antibody to phytic acid). Six one-day old male Single Comb White Leghorn chicks were assigned to each of the dietary treatments. Chicks were fed the dietary treatments for 10 days, weighed, and blood sampled for determining plasma phosphorous concentration using a Roche/Hitachi analyzer (based on the reaction of phosphate with ammonium molybdate to form ammonium phosphomolybdate without reduction). Excreta (n=1) was collected under each group of 6 chicks for mineral analysis. Chicks were euthanized and the right tibiotarsus of each chick was collected, dried, ether extracted, and ashed for the determination of bone mineral content of fat free, dried bone.
t-Test comparison were used to determine if (1) the addition of 1α-hydroxyvitamin D3 changed the endpoint relative to the negative control diet and (2) the addition of antibody to phytate to the 1α-hydroxyvitamin D3 diet (positive control) reduced the plasma phosphate level. P values are given in the results presented below.

[1] = relative to Pi deficient negative control diet

C=C1/C(=C\C=C2/CCC[C@]3(C)[C@@H]([C@H](C)CCCC(C)C)CC[C@@H]23)C[C@@H](O)C[C@@H]1O [1α-hydroxyvitamin D3]
Plasma Phosphate (chicks, Pi deficient diet, 10 days, 1α-hydroxyvitamin D3 20 μg/kg diet alone, or plus antibody 1 g/kg diet dried egg yolk powder): 6.70 mg/dL
excreta phosphorous (excreta (n=1) collected under each group of 6 chicks): 0.5%
decrease of excreta phosphorous [1]: 22%
increase of bone ash [1]: 8%
increase of plasma phosphorous [1]: 71%
bone ash (right tibiotarsus, fat free dried bone, after 10 days of diet): 37.4%
